Data on 1 compound can be found in ChEMBL document CHEMBL3822374, “Anti-inflammatory polyphenol constituents derived from Cissus pteroclada Hayata” (Bioorg Med Chem Lett, 2016).

Test [1] has as its system RAW264.7. The test can be described thus: Antiinflammatory activity against LPS-stimulated mouse RAW264.7 cells assessed as PGE2 levels by ELISA (reference value: 33.2 +/- 2.33 pg/mL). It counts as functional.
For test [2], the system named is RAW264.7. Description: Antiinflammatory activity against LPS-stimulated mouse RAW264.7 cells assessed as NO levels by ELISA (reference value: 0.95 +/- 0.052 umol/mL). The class given is functional.
In test [3] the test system is RAW264.7. The test can be described thus: Antiinflammatory activity against LPS-stimulated mouse RAW264.7 cells assessed as COX2 levels by ELISA (reference value: 159.64 +/- 13.56 pg/mL). The class given is functional.
Test [4] in a line: Inhibition of NFkappaB signaling pathway in LPS-stimulated mouse RAW264.7 cells assessed as protein levels by ELISA (reference value: 1.23 +/- 0.06 pg/mL). It counts as cell-based.
Test [5] relates to RAW264.7. The test can be described thus: Antiinflammatory activity against LPS-stimulated mouse RAW264.7 cells assessed as TNFalpha levels by ELISA (reference value: 183.21 +/- 5.36 pg/mL). It counts as functional.
Test [6] concerns RAW264.7. The test can be described thus: Antiinflammatory activity against LPS-stimulated mouse RAW264.7 cells assessed as IL1beta levels by ELISA (reference value: 8.70 +/- 0.365 pg/mL). It counts as functional.
For test [7], the system named is RAW264.7. The test can be described thus: Antiinflammatory activity against LPS-stimulated mouse RAW264.7 cells assessed as iNOS levels by ELISA (reference value: 31.63 +/- 3.26 U/mL). The class given is functional.

Take `COc1ccc2c(c1)c(CC(=O)O)c(C)n2C(=O)c1ccc(Cl)cc1` [INDOMETHACIN]: the Activity with RAW264.7 [1] is 19.67 pg/mL; in the test on RAW264.7 [2], 0.17 µmol/mL; in the test with RAW264.7 [3], 71.47 pg/mL; in test [4] it was 0.39 pg/mL; with RAW264.7 [5], 58.55 pg/mL; in the test on RAW264.7 [6] it was 3.15 pg/mL. The Activity with RAW264.7 [7] was 17.38 U/ml.
